The source of these data is patent US4014883A, “Indoloquinolines, intermediates and processes” (Hoffmann-La Roche Inc., priority 1975, dated 1977).

Where only a bound is given, the exact number is not on record here.

By LD50 is commonly meant the dose expected to kill half of the subjects tested. A high value points to lower toxicity.

One data set is described as follows: acute LD50 in mice. The following applies: mouse, in vivo.
A further data set deals with Sarcoma 180 (S-180). The data set is described as follows: inhibition of growth of transplantable Sarcoma 180 (S-180) tumors, C/T ratio. As to conditions: S-180 in mice, once daily for 8 days, ratio greater than 2 = active. The format is in vivo.

As for `CN(C)CCn1c(=O)c2[nH]c3ccc(Cl)cc3c2c2ccccc21` [10-chloro-5-(2-dimethylaminoethyl)-7H-indolo[2,3-c]quinolin-6(5H)-one], the values for the LD50 in “acute LD50 in mice” (ip) and in the data set “acute LD50 in mice” (po) were more than 2000 mg/kg and more than 4000 mg/kg, respectively. In addition, the “C/T ratio (average tumor weight of untreated controls / treated)” value with Sarcoma 180 (S-180) (100 mg/kg i.p.) was found to be 3.50; with Sarcoma 180 (S-180) (100 mg/kg orally), 3.05.
